Laboratory results taken from US20190216956A1, “COMPOSITIONS FOR RADIOTHERAPY AND USES THEREOF” (priority 2016, published 2019).
Several values for one entry are separate records, joined by “and”; a condition that tells them apart may be missing. Equal entries are not always repeated.

Tests used:
NCI-28H cells [1] = assay: Cytotoxicity assay (MTS) of NCI-28H cells: doxorubicin, cisplatin, paclitaxel, talc, talc bound to drugs (Example 21); type: cell-based; details: for AVERAGE: cells + DOX / % survival from untreated by DOX cells / % survival (cells + drug) / Average readings: cells + drug / Average reading: cells + cisplatin / % survival from untreated cells (cells + cisplatin): NCI-28H cells; for AVERAGE: cells + DOX / Average readings: cells + drug / Average reading: cells + cisplatin: absorbance 490 nm
Description: Read absorbance (MTS assay) and calculate cells survival rate. Compare survival rate between each formulation.
1. Set up 3 cytotoxicity plates for Day 2 experiment: trypsinize NCI-28H cells (T-75 flask, passage 12): • Remove old medium, wash cells with 7 ml DPBS, remove DPBS, add 2 ml trypsin, incubate plates for 1-2′, when cells detached add 6 ml fresh medium, mix cells and medium. • Count cells under the microscope using the glass slide. […] If we need 200 wells, in each well will be 5,000 cells in 0.1 ml; so total we need 1,000,000 cells in 20 ml. […] In 50 ml Falcon tube, combine 16.6 ml fresh medium and 3.4 ml cells. Gently mix.
3. […] Final solution is 500 μL of 20 μM.
(§1) 1. Centrifuge tubes at 3200 rpm for 3 min. Take out supernatant.
6. Check the plate and start incubation at 37° C./5% CO2
3. Wash cells 1×300 μL media, remove final wash.

NCI-2052H cells = assay: Cytotoxicity assay (MTS) of NCI-2052H cells: bleomycin, mitomycin, doxorubicin, paclitaxel, talc, talc bound to drugs (Example 23); type: cell-based; details: for Average reading: cells + drug, paclitaxel: absorbance 490 nm
NCI-28H cells [2] = assay: Cytotoxicity assay (MTS) of NCI-28H cells: carboplatin, mitomycin, gemcitabine, talc, talc bound to drugs (Example 22); details: for % survival from untreated cells: cells + drug, carboplatin / Average reading: cells + drug, carboplatin / % survival from untreated cells: cells + drug, gemcitabine / Average reading: cells + drug, gemcitabine: NCI-28H cells; for Average reading: cells + drug, carboplatin / Average reading: cells + drug, gemcitabine: absorbance 490 nm
Description: Read absorbance (MTS assay) and calculate cells survive rate. Compare survival rate
1. Set up 3 cytotoxicity plates for tomorrow experiment: trypsinize NCI-28H cells (T-75 flask, passage 12): • Remove old medium, wash cells with 7 ml DPBS, remove DPBS, add 2 ml trypsin, incubate plates for 1-2′, when cells detached add 6 ml fresh medium, mix cells and medium. • Count cells under the microscope using the glass slide. […] If we need 200 wells, in each well will be 5,000 cells in 0.1 ml; so total we need 1,000,000 cells in 20 ml.
2. […] Final solution is 500 μL of 500 μM carboplatin.
4. […] Final solution is 500 μL of 200 μM Gemcitabine.
as §1
3. Add 100 μL of each 8 preparations of diluted carboplatin (step 1 and 2) to the proper wells according to a plate layout.
4. Add 100 μL of each 8 preparations of diluted Gemcitabine (step 1, 2, 3) to the proper wells according to a plate layout.
6. Check the plate and start incubation at 37° C./5% CO2.
3. Wash all cells 1×300 μL DPBS, remove final wash.

COc1cccc2c1C(=O)c1c(O)c3c(c(O)c1C2=O)C[C@@](O)(C(=O)CO)C[C@@H]3O[C@H]1C[C@H](N)[C@H](O)[C@H](C)O1 [DOX]
% survival NCI-28H cells after different treatment (compare to untreated cells) (NCI-28H cells [1]; 125 nM DOX): 70% | AVERAGE: cells + DOX (NCI-28H cells [1]; DOX 0.000064 μM): 1.18 | AVERAGE: cells + DOX (NCI-28H cells [1]; DOX 0.2 μM): 0.89 | AVERAGE: cells + DOX (NCI-28H cells [1]; DOX 1 μM): 0.67 | AVERAGE: cells + DOX (NCI-28H cells [1]; DOX 5 μM): 0.63

COc1cccc2c1C(=O)c1c(O)c3c(c(O)c1C2=O)C[C@@](O)(C(=O)CO)C[C@@H]3O[C@H]1C[C@H](N)[C@H](O)[C@H](C)O1 [Dox]
% survival from untreated by DOX cells (NCI-28H cells [1]; Dox 0.064 nM): 86.3% | % survival from untreated by DOX cells (NCI-28H cells [1]; Dox 8 nM): 83.4% | % survival from untreated by DOX cells (NCI-28H cells [1]; Dox 40 nM): 77.4% | % survival from untreated by DOX cells (NCI-28H cells [1]; Dox 200 nM): 65.0% | % survival from untreated by DOX cells (NCI-28H cells [1]; Dox 1000 nM): 48.6% | % survival from untreated by DOX cells (NCI-28H cells [1]; Dox 5000 nM): 46.2%

CC(=O)O[C@H]1C(=O)[C@@]2(C)[C@H]([C@H](OC(=O)c3ccccc3)[C@]3(O)C[C@H](OC(=O)[C@H](O)[C@@H](NC(=O)c4ccccc4)c4ccccc4)C(C)=C1C3(C)C)[C@]1(OC(C)=O)CO[C@@H]1C[C@@H]2O [Paclitaxel]
% survival (cells + drug) (NCI-28H cells [1]; Paclitaxel 0.13 nM): 102.50% | Average readings: cells + drug (NCI-28H cells [1]; Paclitaxel 0.13 nM): 1.56 | % survival (cells + drug) (NCI-28H cells [1]; Paclitaxel 0.68 nM): 86.98% | Average readings: cells + drug (NCI-28H cells [1]; Paclitaxel 0.68 nM): 1.33 | % survival (cells + drug) (NCI-28H cells [1]; Paclitaxel 3.5 nM): 89.85% | Average readings: cells + drug (NCI-28H cells [1]; Paclitaxel 3.5 nM): 1.37 | % survival (cells + drug) (NCI-28H cells [1]; Paclitaxel 16 nM): 84.47% | Average readings: cells + drug (NCI-28H cells [1]; Paclitaxel 16 nM): 1.29 | % survival (cells + drug) (NCI-28H cells [1]; Paclitaxel 80 nM): 71.81% | Average readings: cells + drug (NCI-28H cells [1]; Paclitaxel 80 nM): 1.10 | % survival (cells + drug) (NCI-28H cells [1]; Paclitaxel 400 nM): 66.39% | % survival (cells + drug) (NCI-28H cells [1]; Paclitaxel 2000 nM): 62.43% | % survival (cells + drug) (NCI-28H cells [1]; Paclitaxel 10,000 nM): 60.71% | Average reading: cells + drug, paclitaxel (NCI-2052H cells; Paclitaxel 0.256 nM): 1.4273 | Average reading: cells + drug, paclitaxel (NCI-2052H cells; Paclitaxel 6.4 nM): 1.54 | Average reading: cells + drug, paclitaxel (NCI-2052H cells; Paclitaxel 32 nM): 0.5818 | Average reading: cells + drug, paclitaxel (NCI-2052H cells; Paclitaxel 160 nM): 0.4361 | Average reading: cells + drug, paclitaxel (NCI-2052H cells; Paclitaxel 800 nM): 0.4326 | Average reading: cells + drug, paclitaxel (NCI-2052H cells; Paclitaxel 4000 nM): 0.553 | Average reading: cells + drug, paclitaxel (NCI-2052H cells; Paclitaxel 20,000 nM): 0.1647 | % survival from untreated cells (NCI-2052H cells; paclitaxel 0.256 (nM per Table 97)): 83.84% | % survival from untreated cells (NCI-2052H cells; paclitaxel 1.28 (nM per Table 97)): 93.24% | % survival from untreated cells (NCI-2052H cells; paclitaxel 6.4 (nM per Table 97)): 90.43% | % survival from untreated cells (NCI-2052H cells; paclitaxel 32 (nM per Table 97)): 34.17% | % survival from untreated cells (NCI-2052H cells; paclitaxel 160 (nM per Table 97)): 25.61% | % survival from untreated cells (NCI-2052H cells; paclitaxel 800 (nM per Table 97)): 25.41% | % survival from untreated cells (NCI-2052H cells; paclitaxel 4000 (nM per Table 97)): 32.48% | % survival from untreated cells (NCI-2052H cells; paclitaxel 20,000 (nM per Table 97)): 9.67%

N.N.O=C([O-])C1(C(=O)[O-])CCC1.[Pt+2] [carboplatin]
% survival from untreated cells: cells + drug, carboplatin (NCI-28H cells [2]; carboplatin 0.006 μM): 90.84% and 94.28% | Average reading: cells + drug, carboplatin (NCI-28H cells [2]; carboplatin 0.006 μM): 1.504 | % survival from untreated cells: cells + drug, carboplatin (NCI-28H cells [2]; carboplatin 0.8 μM): 85.98% and 87.53% | Average reading: cells + drug, carboplatin (NCI-28H cells [2]; carboplatin 0.8 μM): 1.4238 | % survival from untreated cells: cells + drug, carboplatin (NCI-28H cells [2]; carboplatin 4 μM): 96.93% and 93.62% | Average reading: cells + drug, carboplatin (NCI-28H cells [2]; carboplatin 4 μM): 1.605 | % survival from untreated cells: cells + drug, carboplatin (NCI-28H cells [2]; carboplatin 20 μM): 104.81% and 99.20% | Average reading: cells + drug, carboplatin (NCI-28H cells [2]; carboplatin 20 μM): 1.7355 | % survival from untreated cells: cells + drug, carboplatin (NCI-28H cells [2]; carboplatin 100 μM): 83.82% and 79.53% | Average reading: cells + drug, carboplatin (NCI-28H cells [2]; carboplatin 100 μM): 1.388 | % survival from untreated cells: cells + drug, carboplatin (NCI-28H cells [2]; carboplatin 500 μM): 37.38% and 35.14% | Average reading: cells + drug, carboplatin (NCI-28H cells [2]; carboplatin 500 μM): 0.6189

N.N.[Cl][Pt][Cl] [cisplatin]
Average reading: cells + cisplatin (NCI-28H cells [1]; Cisplatin 0.0013 μM): 1.37 | Average reading: cells + cisplatin (NCI-28H cells [1]; Cisplatin 0.0064 μM): 1.19 | Average reading: cells + cisplatin (NCI-28H cells [1]; Cisplatin 0.8 μM): 1.23 | Average reading: cells + cisplatin (NCI-28H cells [1]; Cisplatin 4 μM): 1.18 | Average reading: cells + cisplatin (NCI-28H cells [1]; Cisplatin 20 μM): 0.48 | Average reading: cells + cisplatin (NCI-28H cells [1]; Cisplatin 100 μM): 0.59 | % survival from untreated cells (cells + cisplatin) (NCI-28H cells [1]; cisplatin 0.0013 (μM per Table 64)): 91.07% | % survival from untreated cells (cells + cisplatin) (NCI-28H cells [1]; cisplatin 0.0064 (μM per Table 64)): 79.21% | % survival from untreated cells (cells + cisplatin) (NCI-28H cells [1]; cisplatin 0.032 (μM per Table 64)): 76.66% | % survival from untreated cells (cells + cisplatin) (NCI-28H cells [1]; cisplatin 0.16 (μM per Table 64)): 79.74% | % survival from untreated cells (cells + cisplatin) (NCI-28H cells [1]; cisplatin 0.8 (μM per Table 64)): 82.09% | % survival from untreated cells (cells + cisplatin) (NCI-28H cells [1]; cisplatin 4 (μM per Table 64)): 78.41% | % survival from untreated cells (cells + cisplatin) (NCI-28H cells [1]; cisplatin 20 (μM per Table 64)): 31.99% | % survival from untreated cells (cells + cisplatin) (NCI-28H cells [1]; cisplatin 100 (μM per Table 64)): 39.35%

Nc1ccn([C@@H]2O[C@H](CO)[C@@H](O)C2(F)F)c(=O)n1 [gemcitabine]
cytotoxic effect on NCI-28H cells (comparison) (NCI-28H cells [2]): clear cytotoxic effect | % survival from untreated cells: cells + drug, gemcitabine (NCI-28H cells [2]; gemcitabine 0.0026 μM): 114.61% | Average reading: cells + drug, gemcitabine (NCI-28H cells [2]; gemcitabine 0.0026 μM): 2.034 | % survival from untreated cells: cells + drug, gemcitabine (NCI-28H cells [2]; gemcitabine 0.013 μM): 107.85% | Average reading: cells + drug, gemcitabine (NCI-28H cells [2]; gemcitabine 0.013 μM): 1.914 | % survival from untreated cells: cells + drug, gemcitabine (NCI-28H cells [2]; gemcitabine 0.064 μM): 80.60% | Average reading: cells + drug, gemcitabine (NCI-28H cells [2]; gemcitabine 0.064 μM): 1.43 | % survival from untreated cells: cells + drug, gemcitabine (NCI-28H cells [2]; gemcitabine 8 μM): 56.58% | Average reading: cells + drug, gemcitabine (NCI-28H cells [2]; gemcitabine 8 μM): 1.004 | % survival from untreated cells: cells + drug, gemcitabine (NCI-28H cells [2]; gemcitabine 40 μM): 60.09% | Average reading: cells + drug, gemcitabine (NCI-28H cells [2]; gemcitabine 40 μM): 1.0663 | % survival from untreated cells: cells + drug, gemcitabine (NCI-28H cells [2]; gemcitabine 200 μM): 52.70% | Average reading: cells + drug, gemcitabine (NCI-28H cells [2]; gemcitabine 200 μM): 0.9352

talc
cytotoxic effect on NCI-28H cells (comparison) (NCI-28H cells [2]): clear cytotoxic effect
